Experimental data published in PMC11062922 (Nature Chemical Biology, 2023).
Read-outs that look alike come from different tables or passages of the source.

Key:
ACOX1 = molecular target: T1, ACOX1 (Homo sapiens, UniProt Q15067); test: Kinobeads two-dose competition binding: ACOX1; conditions: sheet CATDS matrix 2; Gene Name ACOX1;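 also: competition of compounds with immobilized broad-spectrum kinase inhibitor beads in cell lysate at 100 and 1,000 nM, 45 min at 4 °C, bead-bound protein quantified by label-free MS versus DMSO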
T1 construct: endogenous in cells
T1 sequence (Q15067 1-660): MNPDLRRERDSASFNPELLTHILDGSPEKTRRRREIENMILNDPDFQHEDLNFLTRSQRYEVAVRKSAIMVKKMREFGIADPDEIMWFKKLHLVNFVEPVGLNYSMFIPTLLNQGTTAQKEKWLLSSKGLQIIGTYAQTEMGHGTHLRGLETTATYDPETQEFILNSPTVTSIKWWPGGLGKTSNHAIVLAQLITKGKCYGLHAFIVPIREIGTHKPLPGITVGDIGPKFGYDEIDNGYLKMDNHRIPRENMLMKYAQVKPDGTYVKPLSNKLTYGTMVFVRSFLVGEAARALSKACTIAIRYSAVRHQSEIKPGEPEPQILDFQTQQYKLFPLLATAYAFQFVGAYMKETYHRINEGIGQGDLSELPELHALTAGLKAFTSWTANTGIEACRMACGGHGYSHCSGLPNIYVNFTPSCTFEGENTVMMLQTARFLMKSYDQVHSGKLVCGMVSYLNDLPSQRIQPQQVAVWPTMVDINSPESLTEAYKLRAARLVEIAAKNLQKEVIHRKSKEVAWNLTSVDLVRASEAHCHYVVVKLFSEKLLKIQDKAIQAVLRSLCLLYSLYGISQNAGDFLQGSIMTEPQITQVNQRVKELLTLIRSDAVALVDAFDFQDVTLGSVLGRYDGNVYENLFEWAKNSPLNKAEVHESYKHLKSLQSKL

AAK1 = molecular target: T2, AAK1 (Homo sapiens, UniProt Q2M2I8); test: Kinobeads two-dose competition binding: AAK1; conditions: sheet CATDS matrix 2; Gene Name AAK1;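 also: kinobeads competition pulldown from cell lysate, compound preincubated 45 min at 4 °C, bead-bound protein measured by label-free mass spectrometry against DMSO vehicle control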
T2 construct: to maximize the representation of endogenous proteins; endogenous in cells
T2 sequence (Q2M2I8 whole entry): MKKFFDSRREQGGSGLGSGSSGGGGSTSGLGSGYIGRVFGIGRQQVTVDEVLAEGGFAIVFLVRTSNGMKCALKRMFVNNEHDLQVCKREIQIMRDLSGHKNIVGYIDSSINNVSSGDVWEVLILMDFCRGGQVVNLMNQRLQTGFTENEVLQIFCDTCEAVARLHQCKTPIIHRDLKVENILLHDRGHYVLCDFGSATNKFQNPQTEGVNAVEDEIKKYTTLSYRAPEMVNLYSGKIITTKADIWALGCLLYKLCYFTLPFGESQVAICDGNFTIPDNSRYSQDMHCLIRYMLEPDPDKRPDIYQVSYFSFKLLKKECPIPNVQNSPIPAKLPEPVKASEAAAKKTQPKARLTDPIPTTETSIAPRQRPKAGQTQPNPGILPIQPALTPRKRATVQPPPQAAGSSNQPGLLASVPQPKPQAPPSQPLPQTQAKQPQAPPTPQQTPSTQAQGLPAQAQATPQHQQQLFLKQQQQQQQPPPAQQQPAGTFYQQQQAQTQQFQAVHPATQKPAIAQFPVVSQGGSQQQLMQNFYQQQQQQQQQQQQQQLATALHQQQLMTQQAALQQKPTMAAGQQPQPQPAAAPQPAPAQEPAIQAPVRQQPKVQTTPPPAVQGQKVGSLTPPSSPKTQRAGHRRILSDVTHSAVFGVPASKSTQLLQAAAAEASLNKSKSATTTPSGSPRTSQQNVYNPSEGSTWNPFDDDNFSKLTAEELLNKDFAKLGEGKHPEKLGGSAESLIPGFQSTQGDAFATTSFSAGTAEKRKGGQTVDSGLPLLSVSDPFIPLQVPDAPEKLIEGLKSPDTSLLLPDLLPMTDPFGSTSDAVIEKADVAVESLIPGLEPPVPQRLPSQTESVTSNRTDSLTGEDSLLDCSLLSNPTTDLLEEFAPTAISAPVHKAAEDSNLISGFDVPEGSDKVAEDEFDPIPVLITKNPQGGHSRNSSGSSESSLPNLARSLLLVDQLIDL

ABL1 = ABL1 (Homo sapiens, UniProt P00519); test: Kinobeads two-dose competition binding: ABL1; conditions: sheet CATDS matrix 2; Gene Name ABL1
Chain of ABL1 (P00519 28-1130 limits assumed): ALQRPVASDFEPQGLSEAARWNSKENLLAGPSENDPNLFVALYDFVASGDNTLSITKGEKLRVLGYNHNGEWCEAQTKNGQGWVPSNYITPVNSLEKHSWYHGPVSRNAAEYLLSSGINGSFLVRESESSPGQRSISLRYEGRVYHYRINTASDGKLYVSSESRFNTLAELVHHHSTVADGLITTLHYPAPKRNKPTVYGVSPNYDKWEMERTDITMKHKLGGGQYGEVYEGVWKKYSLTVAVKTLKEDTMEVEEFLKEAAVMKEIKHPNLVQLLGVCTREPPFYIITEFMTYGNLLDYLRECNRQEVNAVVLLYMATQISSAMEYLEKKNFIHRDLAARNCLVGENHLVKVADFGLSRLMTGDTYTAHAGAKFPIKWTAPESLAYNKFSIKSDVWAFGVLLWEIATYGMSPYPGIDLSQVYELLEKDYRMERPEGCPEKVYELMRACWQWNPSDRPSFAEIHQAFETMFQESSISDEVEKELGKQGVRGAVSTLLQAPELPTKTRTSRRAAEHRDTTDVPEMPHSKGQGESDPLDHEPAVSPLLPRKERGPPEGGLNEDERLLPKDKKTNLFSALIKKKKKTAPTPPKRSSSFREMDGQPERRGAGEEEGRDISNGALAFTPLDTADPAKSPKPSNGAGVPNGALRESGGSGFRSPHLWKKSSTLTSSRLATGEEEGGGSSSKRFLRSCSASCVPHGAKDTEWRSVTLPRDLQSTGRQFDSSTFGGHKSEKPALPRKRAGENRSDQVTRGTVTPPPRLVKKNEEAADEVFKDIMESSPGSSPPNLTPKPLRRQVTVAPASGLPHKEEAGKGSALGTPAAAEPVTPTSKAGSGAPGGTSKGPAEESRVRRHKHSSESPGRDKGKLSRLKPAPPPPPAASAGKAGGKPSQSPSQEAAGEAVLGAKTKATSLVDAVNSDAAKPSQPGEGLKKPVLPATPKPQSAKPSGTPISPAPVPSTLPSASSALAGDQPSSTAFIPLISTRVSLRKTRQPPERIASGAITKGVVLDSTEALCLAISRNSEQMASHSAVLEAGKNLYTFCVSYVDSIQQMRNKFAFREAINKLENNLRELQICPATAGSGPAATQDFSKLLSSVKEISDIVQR

ABL2 = molecular target: T3, ABL2 (Homo sapiens, UniProt P42684); test: Kinobeads two-dose competition binding: ABL2; conditions: sheet CATDS matrix 2; Gene Name ABL2
T3 construct: endogenous in cells
T3 sequence (P42684 whole entry): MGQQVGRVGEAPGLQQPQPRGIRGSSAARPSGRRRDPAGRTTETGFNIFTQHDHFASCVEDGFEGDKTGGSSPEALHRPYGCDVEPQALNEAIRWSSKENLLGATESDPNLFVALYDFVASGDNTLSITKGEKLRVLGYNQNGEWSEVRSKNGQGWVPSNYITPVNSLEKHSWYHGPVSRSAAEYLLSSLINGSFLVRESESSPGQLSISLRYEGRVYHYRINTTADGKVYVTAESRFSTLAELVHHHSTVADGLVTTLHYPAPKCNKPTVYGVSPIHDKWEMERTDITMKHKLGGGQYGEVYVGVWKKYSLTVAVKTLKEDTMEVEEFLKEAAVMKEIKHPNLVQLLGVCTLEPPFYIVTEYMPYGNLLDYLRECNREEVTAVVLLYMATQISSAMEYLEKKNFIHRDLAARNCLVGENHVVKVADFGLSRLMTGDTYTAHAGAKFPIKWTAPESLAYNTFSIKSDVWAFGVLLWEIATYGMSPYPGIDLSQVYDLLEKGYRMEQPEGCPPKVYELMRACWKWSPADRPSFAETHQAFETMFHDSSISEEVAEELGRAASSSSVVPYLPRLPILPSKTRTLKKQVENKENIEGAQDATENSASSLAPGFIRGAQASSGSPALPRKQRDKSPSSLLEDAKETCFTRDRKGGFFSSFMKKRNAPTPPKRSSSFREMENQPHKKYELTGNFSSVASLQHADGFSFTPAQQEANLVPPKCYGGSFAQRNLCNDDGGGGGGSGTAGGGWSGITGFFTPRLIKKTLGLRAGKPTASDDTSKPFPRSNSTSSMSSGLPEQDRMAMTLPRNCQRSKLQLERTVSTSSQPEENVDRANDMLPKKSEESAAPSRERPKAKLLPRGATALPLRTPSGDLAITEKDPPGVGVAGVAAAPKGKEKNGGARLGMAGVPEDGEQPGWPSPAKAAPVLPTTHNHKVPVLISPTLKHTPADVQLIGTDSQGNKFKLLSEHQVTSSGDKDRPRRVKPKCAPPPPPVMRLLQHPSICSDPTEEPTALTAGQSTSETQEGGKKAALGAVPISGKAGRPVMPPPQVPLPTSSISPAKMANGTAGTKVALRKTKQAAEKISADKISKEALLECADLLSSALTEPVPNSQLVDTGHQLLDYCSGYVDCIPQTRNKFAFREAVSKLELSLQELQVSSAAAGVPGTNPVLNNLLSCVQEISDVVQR

ACAD11 = molecular target: T4, ACAD11 (Homo sapiens, UniProt Q709F0); test: Kinobeads two-dose competition binding: ACAD11; conditions: sheet CATDS matrix 2; Gene Name ACAD11
T4 construct: endogenous in cells
T4 sequence (Q709F0 1-780): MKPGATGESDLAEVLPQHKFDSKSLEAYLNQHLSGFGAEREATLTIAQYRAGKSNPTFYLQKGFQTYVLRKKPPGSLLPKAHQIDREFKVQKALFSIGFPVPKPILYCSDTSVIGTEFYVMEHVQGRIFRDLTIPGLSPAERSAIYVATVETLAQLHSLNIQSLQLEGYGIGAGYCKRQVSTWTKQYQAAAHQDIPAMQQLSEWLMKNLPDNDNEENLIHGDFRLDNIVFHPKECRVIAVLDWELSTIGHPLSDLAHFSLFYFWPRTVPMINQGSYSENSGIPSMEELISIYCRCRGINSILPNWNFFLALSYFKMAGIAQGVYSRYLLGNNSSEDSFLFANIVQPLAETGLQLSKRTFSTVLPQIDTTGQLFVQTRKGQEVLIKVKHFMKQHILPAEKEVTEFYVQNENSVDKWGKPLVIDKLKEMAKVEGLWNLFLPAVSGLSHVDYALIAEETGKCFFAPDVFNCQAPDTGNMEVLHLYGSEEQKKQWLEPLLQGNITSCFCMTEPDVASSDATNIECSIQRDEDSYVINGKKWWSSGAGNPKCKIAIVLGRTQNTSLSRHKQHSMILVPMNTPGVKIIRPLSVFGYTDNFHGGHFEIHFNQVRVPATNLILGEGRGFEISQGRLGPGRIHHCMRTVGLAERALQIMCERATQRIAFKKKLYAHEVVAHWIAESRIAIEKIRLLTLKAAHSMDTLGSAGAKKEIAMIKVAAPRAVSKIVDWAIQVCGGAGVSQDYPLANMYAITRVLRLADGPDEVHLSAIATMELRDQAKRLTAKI

PKN3 = PKN3 (Homo sapiens, UniProt Q6P5Z2); test: NanoBRET in-cell target engagement in HEK293T cells: PKN3; format: cell-based; parameters: full-length PKN3, CSNK2A1 or CSNK2A2 ORF; host or cells: HEK293T;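 also: Full-length PKN3 with C-terminal NanoLuc expressed in HEK293T cells, serial inhibitor dilutions competing against Kinase Tracer K5 at 500 nM, BRET read after 2 h at 37 °C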
Chain of PKN3 (Q6P5Z2 whole entry): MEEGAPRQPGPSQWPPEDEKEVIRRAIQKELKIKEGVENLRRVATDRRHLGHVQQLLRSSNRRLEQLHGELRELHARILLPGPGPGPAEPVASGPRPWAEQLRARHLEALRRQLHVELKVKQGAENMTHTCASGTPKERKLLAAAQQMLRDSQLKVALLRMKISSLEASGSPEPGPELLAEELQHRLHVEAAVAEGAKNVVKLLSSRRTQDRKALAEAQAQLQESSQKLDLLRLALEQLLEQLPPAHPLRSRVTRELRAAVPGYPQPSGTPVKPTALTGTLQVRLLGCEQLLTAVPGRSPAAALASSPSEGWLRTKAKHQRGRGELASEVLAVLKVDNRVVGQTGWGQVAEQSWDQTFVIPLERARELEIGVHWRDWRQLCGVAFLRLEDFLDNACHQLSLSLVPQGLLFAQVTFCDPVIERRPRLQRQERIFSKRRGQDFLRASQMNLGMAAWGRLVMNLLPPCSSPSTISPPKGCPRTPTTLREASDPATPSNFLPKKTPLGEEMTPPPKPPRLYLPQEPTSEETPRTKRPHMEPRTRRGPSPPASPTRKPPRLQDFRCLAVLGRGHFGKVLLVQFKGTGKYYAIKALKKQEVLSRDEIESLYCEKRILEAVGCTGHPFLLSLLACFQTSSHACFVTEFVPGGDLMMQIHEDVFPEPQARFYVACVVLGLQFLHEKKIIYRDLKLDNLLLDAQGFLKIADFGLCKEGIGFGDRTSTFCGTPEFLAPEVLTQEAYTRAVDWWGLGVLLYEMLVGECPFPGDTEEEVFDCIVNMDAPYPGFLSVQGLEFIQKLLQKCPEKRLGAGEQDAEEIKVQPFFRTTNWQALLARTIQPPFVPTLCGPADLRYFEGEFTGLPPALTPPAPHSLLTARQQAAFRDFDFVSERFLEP

[1] = average of replicates, read-out: Average of IC50 values NanoBRET PKN3
[2] = biological replicate number 1, read-out: Rep 1 IC50 NanoBRET PKN3
[3] = biological replicate number 2, read-out: Rep 2 IC50 NanoBRET PKN3
[4] = biological replicate number 4, read-out: Rep 4 IC50 NanoBRET PKN3
[5] = HEK293T cells, in-cell target engagement, read-out: IC50 PKN3 NanoBRET
[6] = biological replicate number 3, read-out: Rep 3 IC50 NanoBRET PKN3

SMILES	CATDS (ACOX1)	CATDS (AAK1)	CATDS (ABL1)	CATDS (ABL2)	CATDS (ACAD11)	IC50 (PKN3; [1])	IC50 (PKN3; [2])	IC50 (PKN3; [3])	IC50 (PKN3; [4])	IC50 (PKN3; [5])	IC50 (PKN3; [6])
Cc1cn2c(=O)cc(N3CCOCC3)nc2n1Cc1cccc(Cl)c1Cl [GSK2334006A]	0	0	0	0	0						
Cc1c(Cn2ccn3c(=O)nc(N4CCOCC4)cc23)cccc1C(F)(F)F [GSK2336394A]	0	0	0	0	0						
Cc1nn2c(=O)cc(N3CCOCC3)nc2n1Cc1cccc(Cl)c1Cl [GSK2342769A]	0	0	0	0	0						
Cc1c(Cn2c(C)nn3c(=O)cc(N4CCOC(C)C4)nc23)cccc1C(F)(F)F (centres unmarked) [GSK2344444A]	0	0	0	0	0						
CSc1nn2c(=O)cc(N3CCOCC3)nc2n1Cc1cccc(Cl)c1Cl [GSK2347225A]	0	0	0	0	0						
O=c1cc(N2CCOCC2)nc2n(Cc3cccc(Cl)c3Cl)c(C3CC3)nn12 [GSK2358994A]	0	0	0	0	0						
CSc1nn2c(=O)cc(N3CCOCC3)nc2n1Cc1cccc(C(F)(F)F)c1C [GSK2363608B]	0	0	0	0	0						
COc1cccc2c(-c3ccncc3)c(-c3ccc(F)cc3)nn12 [GW468513X]						0.91 µM	2.11 µM	0.552 µM	0.0739 µM		
Cc1cccc2c(-c3ccncn3)c(-c3ccc(F)cc3)nn12 [GW515532X]						26.7 µM		0.922 µM	0.257 µM		
Cc1cccc(-c2nc(Nc3ccncc3)c3sccc3n2)n1 [GW869641X]						1.58 µM	4.19 µM	0.472 µM	0.0871 µM	4.1 µM	
CNc1ncc2cc(-c3cc(NC(=O)NCCC(C)(C)C)c(F)cc3C)c(C)nc2n1 [LY3009120, reference compound]						0.513 µM	0.538 µM	1.23 µM	0.173 µM		0.111 µM
Fc1ccc(-c2c(-c3ccncc3)[nH]c3cccnc23)cc1 [RO1153853-000]						2.36 µM	8.03 µM	0.951 µM	0.295 µM	8 µM	0.164 µM
ON=C1CCc2cc(-c3nc(C4CCNCC4)[nH]c3-c3ccncc3)ccc21 [SB-614067-R]						22.9 µM	19.1 µM	20.6 µM	1.84 µM		50.1 µM
CCOc1nccc2c1nc(-c1nonc1N)n2CC [SB-737198]						> 50 µM	> 50 µM	> 50 µM	> 50 µM		> 50 µM
